The source of these data is US20060034941A1, “Organ preconditioning, arrest, protection, preservation and recovery” (priority 2002, published 2006).

Data set [1] deals with human NK(1) receptor (Homo sapiens, UniProt P25103). Conditions: cited from earlier work.
The subject of data set [2] is in vivo rabbit model. Particulars: reduced MAP similar to CCPA; cited from earlier work.
For data set [3], the system named is A-V nodal and SA pacemakers. Conditions: cited from earlier work.
The test system of data set [4] is canine neutrophils stimulated by platelet activating factor. Kind of data set: In vitro superoxide anion generation by PAF-activated neutrophils. Type of data set: cell-based. Particulars: PAF 100 nmol; 0.1 to 10 uM L, 0.1 to 100 uM ADO; synergy at 1 uM, 5 uM and 10 uM. On the procedure:
PMNs were isolated using the Ficoll-Pacque (Sigma Chemical, St. Louis, Mo.) technique. The cells were adjusted to ˜9×10^7 cells/ml. […] Superoxide anion (—O.2) production by neutrophils stimulated by platelet activating factor (100 nmol) were determined by measuring the superoxide dismutase-inhibitable reduction of ferricytochrome c to ferrocytochrome c spectrophotometrically at 550 nm using a V-Max Microtiter Plate Reader (Molecular Devices, Palo Alto, Calif.). […] Concentrations indicated are final concentrations in each cuvette.

The conditions of data set [5]: i.v., cited from earlier work.

The term Ki denotes the equilibrium dissociation constant of an inhibitor or competing ligand from its target.

Read-outs that look alike come from different tables or passages of the source.

Sequence of human NK(1) receptor (P25103 whole entry): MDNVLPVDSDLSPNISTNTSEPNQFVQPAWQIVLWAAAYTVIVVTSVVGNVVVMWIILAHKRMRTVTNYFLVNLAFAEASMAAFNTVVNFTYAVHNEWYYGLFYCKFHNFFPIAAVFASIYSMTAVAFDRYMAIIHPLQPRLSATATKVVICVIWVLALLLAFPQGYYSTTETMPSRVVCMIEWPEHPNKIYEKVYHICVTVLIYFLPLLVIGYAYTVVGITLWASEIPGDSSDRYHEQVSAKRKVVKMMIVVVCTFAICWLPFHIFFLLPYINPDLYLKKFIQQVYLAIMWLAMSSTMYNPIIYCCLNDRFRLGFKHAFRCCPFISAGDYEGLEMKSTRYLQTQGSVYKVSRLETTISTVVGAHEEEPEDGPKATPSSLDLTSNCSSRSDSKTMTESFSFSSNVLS

On to `Cc1cccc(C)c1NC(=O)C[C@H]1CCN(C(=O)c2cc(C(F)(F)F)cc(C(F)(F)F)c2)[C@@H](Cc2ccccc2)C1.O=C(O)C[C@H](O)C(=O)O` (relative stereo) [R116301, (2R-trans)-4-[1-[3,5-bis(trifluoromethyl)benzoyl]-2-(phenylmethyl)-4-piperidinyl]-N-(2,6-dimethylphenyl)-1-acetamide (S)-Hydroxybutanedioate], for which, in data set [1], the inhibition constant Ki was 0.45 nM; the “selectivity toward NK(2) and NK(3) receptors” value is reported as “over 200 fold”. Consider `CCCCC#Cc1nc(N)c2ncn([C@@H]3O[C@H](C(=O)NCC)[C@@H](O)[C@H]3O)c2n1` [2HE-NECA, 2-hexynyl-5′-N-ethyl-carboxamindoadenosine], for which the “effect on infarct size” value in data set [2] is given as “did not change infarct size”. As to `Nc1ncnc2c1ncn2[C@@H]1O[C@H](CO)[C@@H](O)[C@H]1O` [Ado-only, adenosine], in data set [3], the “effectiveness in slowing the conductance of A-V nodal relative to SA pacemakers” value is recorded as 30 times. Besides, the superoxide anion generation result in data set [4] is recorded as “reduce superoxide anion generation”. On to `CCN(CC)CC(=O)Nc1c(C)cccc1C` [Lido-only, lidocaine], for which, in data set [4], the superoxide anion generation entry is recorded as “reduce superoxide anion generation”. Further, the results for the maximum safe dose in data set [5] (with epinephrine) and in data set [5] (without epinephrine) were around 7 mg/kg and “approximately 4 mg/kg”, respectively.

`CCNC(=O)[C@H]1O[C@@H](n2cnc3c(N)ncnc32)[C@H](O)[C@@H]1O` [NECA, 5′-N-ethyl-carboxamindoadenosine]: in data set [2], the “effect on infarct size” value is on record as “did not change infarct size”. As to `CC(C)NCC(O)COc1ccc(CC(N)=O)cc1` (stereo not shown) [atenolol], the “effect on infarct size” value in data set [2] was “did not change infarct size”.
